Like-named read-outs stand apart in the source and are kept apart here.
Columns and labels:
[1] = test system: Escherichia coli (ECO) isolates; assay: MIC of compounds alone and combined with antibacterials, broth microdilution (CLSI); type: cell-based; details: Escherichia coli
Procedure, shortened: (§1)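 First, log-phase suspensions are brought to a final 5·10^5 CFU/mL in cation-adjusted Mueller-Hinton broth. Then plates with compound, antibacterial, or both incubate 16-20 h at 35° C under ambient air. Finally, visual inspection gives the lowest growth-preventing concentration for each agent.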

[2] = test system: Morganella morganii (MMO) isolates; assay: as above; type: cell-based; details: for MIC: Morganella morganii
Procedure, shortened: as §1

C=CC1=C(C(=O)O)N2C(=O)[C@@H](NC(=O)/C(=N\OCC(=O)O)c3csc(N)n3)[C@H]2SC1 [FIX, Cefixime]
MIC ([1]; strain ECO UFR16 (TEM-1, CTX-M-15, OXA-1, OXA-48), CLA @ 4 μg/ml+ ATB): 4 µg/mL | MIC ([1]; strain ECO UFR17 (TEM-1, CTX-M-15, CMY-2, OXA-1, OXA-181), ATB alone, read-out: MIC): > 128 µg/mL | MIC ([1]; strain ECO UFR17 (TEM-1, CTX-M-15, CMY-2, OXA-1, OXA-181), CLA @ 4 μg/ml+ ATB, read-out: MIC): > 128 µg/mL | MIC ([1]; strain ECO UFR18 (CTX-M-15, OXA-204), ATB alone, read-out: MIC): > 128 µg/mL | MIC ([1]; strain ECO UFR18 (CTX-M-15, OXA-204), CLA @ 4 μg/ml+ ATB, read-out: MIC): > 128 µg/mL | MIC ([1]; strain ECO UFR19 (CTX-M-15, CMY-2, OXA-1, OXA-204), ATB alone, read-out: MIC): > 128 µg/mL | MIC ([1]; strain ECO UFR19 (CTX-M-15, CMY-2, OXA-1, OXA-204), CLA @ 4 μg/ml+ ATB, read-out: MIC): > 128 µg/mL | MIC ([1]; strain ECO UFR20 (SHV-1, CTX-M-15, OXA-1, OXA-232), ATB alone): 512 µg/mL | MIC ([1]; strain ECO UFR20 (SHV-1, CTX-M-15, OXA-1, OXA-232), CLA @ 4 μg/ml+ ATB, read-out: MIC): > 128 µg/mL | MIC ([1]; strain ECO UFR61O (TEM-1, KPC-2), CLA @ 4 μg/ml+ ATB, read-out: MIC): 32 µg/mL | MIC ([1]; strain ECO UFR62 (TEM-1, CTX-M-9, KPC-2), ATB alone, read-out: MIC): 128 µg/mL | MIC ([1]; strain ECO UFR62 (TEM-1, CTX-M-9, KPC-2), CLA @ 4 μg/ml+ ATB, read-out: MIC): 32 µg/mL | MIC ([1]; strain ECO UFR74 (SHV-1, DHA-1), ATB alone, read-out: MIC): > 128 µg/mL | MIC ([1]; strain ECO UFR74 (SHV-1, DHA-1), CLA @ 4 μg/ml+ ATB, read-out: MIC): > 128 µg/mL | MIC ([1]; strain ECO UFR86 (ompC-, ompF-), ATB alone, read-out: MIC): 2 µg/mL | MIC ([1]; strain ECO UFR86 (ompC-, ompF-), CLA @ 4 μg/ml+ ATB, read-out: MIC): 2 µg/mL | MIC ([1]; strain ECO UFR174 (TEM-1, KPC-2, OXA-1), ATB alone): 8 µg/mL | MIC ([1]; strain ECO UFR175 (TEM-1, KPC-2, OXA-9), ATB alone): 64 µg/mL | MIC ([1]; strain ECO UFR175 (TEM-1, KPC-2, OXA-9), CLA @ 4 μg/ml+ ATB): 16 µg/mL | MIC ([1]; strain ECO UFR176 (KPC-3, OXA-9*), ATB alone): 64 µg/mL | MIC ([1]; strain ECO UFR184 (CTX-M-15, CMY-4, OXA-1, OXA-204), ATB alone, read-out: MIC): > 128 µg/mL | MIC ([1]; strain ECO UFR184 (CTX-M-15, CMY-4, OXA-1, OXA-204), CLA @ 4 μg/ml+ ATB, read-out: MIC): > 128 µg/mL | MIC ([1]; strain ECO UFR185 (OXA-48), ATB alone, read-out: MIC): > 128 µg/mL | MIC ([1]; strain ECO UFR185 (OXA-48), CLA @ 4 μg/ml+ ATB, read-out: MIC): > 128 µg/mL | MIC ([1]; strain ECO UFR186 (TEM-1, CTX-M-14, OXA-48), CLA @ 4 μg/ml+ ATB): 8 µg/mL | MIC ([1]; strain ECO UFR189 (TEM-1, CTX-M-15, OXA-48), ATB alone, read-out: MIC): > 128 µg/mL | MIC ([1]; strain ECO UFR189 (TEM-1, CTX-M-15, OXA-48), CLA @ 4 μg/ml+ ATB): 4 µg/mL | MIC ([1]; strain ECO UFR190 (CTX-M-24, OXA-48), ATB alone): 64 µg/mL | MIC ([1]; strain ECO UFR190 (CTX-M-24, OXA-48), CLA @ 4 μg/ml+ ATB): 8 µg/mL | MIC ([1]; strain ECO UFR191 (TEM-1, CTX-M-24, OXA-48), ATB alone, read-out: MIC): > 128 µg/mL | MIC ([1]; strain ECO UFR191 (TEM-1, CTX-M-24, OXA-48), CLA @ 4 μg/ml+ ATB): 4 µg/mL | MIC ([1]; strain ECO UFR207 (CTX-M-15), ATB alone, read-out: MIC): > 128 µg/mL | MIC ([1]; strain ECO UFR207 (CTX-M-15), CLA @ 4 μg/ml+ ATB): 1 µg/mL | MIC ([1]; strain ECO UFR208 (SHV-12), ATB alone, read-out: MIC): > 128 µg/mL | MIC ([1]; strain ECO UFR208 (SHV-12), CLA @ 4 μg/ml+ ATB, read-out: MIC): > 128 µg/mL | MIC ([1]; strain ECO UFR209 (TEM-1, CTX-M-15), ATB alone, read-out: MIC): 1020 µg/mL | MIC ([1]; strain ECO UFR209 (TEM-1, CTX-M-15), CLA @ 4 μg/ml+ ATB): 1 µg/mL | MIC ([1]; strain ECO UFR210 (SHV-12), CLA @ 4 μg/ml+ ATB): 0.5 µg/mL | MIC ([1]; strain ECO UFR211 (TEM-24), ATB alone, read-out: MIC): > 128 µg/mL | MIC ([1]; strain ECO UFR212 (CMY-2), ATB alone, read-out: MIC): > 128 µg/mL | MIC ([1]; strain ECO UFR212 (CMY-2), CLA @ 4 μg/ml+ ATB, read-out: MIC): > 128 µg/mL | MIC ([1]; strain ECO UFR218 (TEM-1, SHV-1, CTX-M-15), ATB alone, read-out: MIC): > 128 µg/mL | MIC ([1]; strain ECO UFR218 (TEM-1, SHV-1, CTX-M-15), CLA @ 4 μg/ml+ ATB): 1 µg/mL | MIC ATB in combination ([2]; MMO 200321, AF1 @ 4 μg/mL): 4 µg/mL | MIC ATB in combination ([2]; MMO 200321, AF1 @ 8 μg/mL): 4 µg/mL | MIC ATB in combination ([2]; MMO UFR144, AF1 @ 4 μg/mL): 2 µg/mL | MIC ATB in combination ([2]; MMO UFR144, AF1 @ 8 μg/mL): 2 µg/mL | MIC ATB in combination ([2]; MMO UFR240, AF1 @ 4 μg/mL): <=0.25 μg/mL | MIC ATB in combination ([2]; MMO UFR240, AF1 @ 8 μg/mL): <=0.25 μg/mL | MIC ATB in combination ([2]; MMO UFR241, AF1 @ 4 μg/mL): 2 µg/mL | MIC ATB in combination ([2]; MMO UFR241, AF1 @ 8 μg/mL): <=0.25 μg/mL | MIC ATB in combination ([2]; MMO UFR242, AF1 @ 4 μg/mL): 4 µg/mL | MIC ATB in combination ([2]; MMO UFR242, AF1 @ 8 μg/mL): 2 µg/mL | MIC ATB in combination ([2]; MMO UFR243, AF1 @ 4 μg/mL): 0.5 µg/mL | MIC ATB in combination ([2]; MMO UFR243, AF1 @ 8 μg/mL): <=0.25 μg/mL | MIC ATB in combination ([2]; MMO UFR244, AF1 @ 4 μg/mL): <=0.25 μg/mL | MIC ATB in combination ([2]; MMO UFR244, AF1 @ 8 μg/mL): <=0.25 μg/mL | MIC ATB in combination ([2]; MMO UFR245, AF1 @ 4 μg/mL): 2 µg/mL | MIC ATB in combination ([2]; MMO UFR245, AF1 @ 8 μg/mL): <=0.25 μg/mL | MIC ATB in combination ([2]; MMO UFR246, AF1 @ 4 μg/mL): 2 µg/mL | MIC ATB in combination ([2]; MMO UFR246, AF1 @ 8 μg/mL): 1 µg/mL | MIC ATB in combination ([2]; MMO UFR247, AF1 @ 4 μg/mL): 0.5 µg/mL | MIC ATB in combination ([2]; MMO UFR247, AF1 @ 8 μg/mL): 0.25 µg/mL | MIC ([2]; strain MMO 200321 (TEM-1, CTX-M-15, OXA-1), ATB alone): > 128 µg/mL | MIC ([2]; strain MMO 200321 (TEM-1, CTX-M-15, OXA-1), CLA @ 4 μg/ml+ ATB, read-out: MIC): 32 µg/mL | MIC ([2]; strain MMO UFR144 (TEM-1, CTX-M-15), ATB alone): > 128 µg/mL | MIC ([2]; strain MMO UFR144 (TEM-1, CTX-M-15), CLA @ 4 μg/ml+ ATB, read-out: MIC): 32 µg/mL | MIC ([2]; strain MMO UFR240 (CTX-M-9), ATB alone, read-out: MIC): 1 µg/mL | MIC ([2]; strain MMO UFR240 (CTX-M-9), CLA @ 4 μg/ml+ ATB, read-out: MIC): 8 µg/mL | MIC ([2]; strain MMO UFR241 (TEM-1, CTX-M-15), ATB alone): > 128 µg/mL | MIC ([2]; strain MMO UFR241 (TEM-1, CTX-M-15), CLA @ 4 μg/ml+ ATB, read-out: MIC): 32 µg/mL | MIC ([2]; strain MMO UFR242 (TEM-52), ATB alone, read-out: MIC): 1020 µg/mL | MIC ([2]; strain MMO UFR242 (TEM-52), CLA @ 4 μg/ml+ ATB, read-out: MIC): 64 µg/mL | MIC ([2]; strain MMO UFR243 (DHA-1), ATB alone, read-out: MIC): 8 µg/mL | MIC ([2]; strain MMO UFR243 (DHA-1), CLA @ 4 μg/ml+ ATB, read-out: MIC): 32 µg/mL | MIC ([2]; strain MMO UFR244 (DHA-1), ATB alone, read-out: MIC): 4 µg/mL

Source: US20200017496A1 (priority 2017, published 2020)
